According to publication PMC7430754, “Cloning and functional complementation of ten Schistosoma mansoni phosphodiesterases expressed in the mammalian host stages” (PLoS Neglected Tropical Diseases, 2020):

Experiments:
[1] = molecular target: T1, TbrPDEB2 (Trypanosoma brucei, UniProt Q38F42); assay: alamar blue growth assay of T. brucei TbrPDEB1/B2 double knockout dependent on this PDE; assay type: cell-based; settings: growth read-out of whole trypanosomes, not enzyme assay; HMI-11 medium, 37 °C, 48 h plus 24 h resazurin
T1 construct: gene Tb09.160.3630; full length, C-terminal 6Myc tag, expressed from rRNA locus in T. b. brucei 2T1 lacking endogenous TbrPDEB1/B2
T1 sequence (Q38F42 entry or part of it): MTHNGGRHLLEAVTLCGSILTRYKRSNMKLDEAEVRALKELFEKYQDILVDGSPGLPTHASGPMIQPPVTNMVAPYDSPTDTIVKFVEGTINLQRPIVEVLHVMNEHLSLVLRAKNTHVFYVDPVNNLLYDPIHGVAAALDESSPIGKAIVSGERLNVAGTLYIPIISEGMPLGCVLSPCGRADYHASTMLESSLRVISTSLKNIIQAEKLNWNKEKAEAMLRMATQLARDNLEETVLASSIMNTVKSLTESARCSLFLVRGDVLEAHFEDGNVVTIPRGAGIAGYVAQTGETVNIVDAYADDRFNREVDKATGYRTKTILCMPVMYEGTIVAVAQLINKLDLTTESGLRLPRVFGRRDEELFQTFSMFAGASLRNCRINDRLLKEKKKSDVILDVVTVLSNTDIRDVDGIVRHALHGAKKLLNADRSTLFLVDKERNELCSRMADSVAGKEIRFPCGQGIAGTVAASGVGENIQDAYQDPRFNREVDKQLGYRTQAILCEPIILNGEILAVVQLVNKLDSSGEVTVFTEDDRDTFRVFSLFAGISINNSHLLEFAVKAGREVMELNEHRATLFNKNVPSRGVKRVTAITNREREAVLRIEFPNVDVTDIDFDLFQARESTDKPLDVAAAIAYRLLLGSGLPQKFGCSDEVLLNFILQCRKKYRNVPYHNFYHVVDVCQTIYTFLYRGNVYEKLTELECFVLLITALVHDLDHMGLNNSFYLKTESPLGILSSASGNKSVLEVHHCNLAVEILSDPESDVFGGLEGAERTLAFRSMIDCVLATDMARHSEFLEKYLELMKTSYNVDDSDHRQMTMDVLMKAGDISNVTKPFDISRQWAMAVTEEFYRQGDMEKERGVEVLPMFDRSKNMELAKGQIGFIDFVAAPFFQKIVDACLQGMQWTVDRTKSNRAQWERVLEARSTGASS
From the text: alamar blue growth assay of T. brucei TbrPDEB1/B2 double knockout dependent on this PDE on TbrPDEB2

[2] = molecular target: T2, SmPDE4A (Schistosoma mansoni, UniProt A0ACM8RGL1); assay: as above; assay type: cell-based, Trypanosoma brucei; settings: growth read-out of whole trypanosomes, not enzyme assay; HMI-11 medium, 37 °C, 48 h plus 24 h resazurin
T2 construct: gene PDE4A; full length 699 aa, codon-optimised, N-terminal first 70 aa of TbrPDEB1 as targeting tag, C-terminal GFP; expressed in T. b. brucei 2T1 lacking TbrPDEB1/B2
From the text: alamar blue growth assay of T. brucei TbrPDEB1/B2 double knockout dependent on this PDE on SmPDE4A

[3] = test system: T3, T. b. brucei 2T1 (parental wild type); assay: microbe, parasite or virus in culture; parameters: species or system T. b. brucei 2T1 bloodstream form; Alamar blue (resazurin) viability of parental bloodstream-form trypanosomes, fluorescence; settings: Trypanosoma brucei, 72 h, read-out: 2T1-WT EC50 (μM)
T3 construct: 2T1, bloodstream form
Description: Drug sensitivities were assessed using a modified version of the alamar blue assay described previously. Briefly, test drugs were serially diluted in 100 μl of complete HMI‐11 media across two rows of a white 96-well plate (Greiner, Stonehouse, UK). Bloodstream‐form trypanosome cultures were diluted in HMI‐11, and 100 μl was added to all wells to give a final cell density of 1 × 10^5 trypanosomes/ml. Plates were incubated for 48 h at 37°C/5% CO2, prior to the addition of 20 μl of 5 mM resazurin sodium salt (Sigma‐Aldrich, Gillingham, UK) in PBS, pH7.4. Plates were incubated for a further 24 h in the same conditions, before fluorescence was measured using a FLUOstar Optima fluorimeter (BMG Labtech, Aylesbury, UK) with excitation and emission filters of 544 nm and 590 nm, respectively. […] All EC50 values were determined at least three times independently.

[4] = molecular target: T4, TbrPDEB1 (Trypanosoma brucei, UniProt Q8WQX9); assay: alamar blue growth assay of T. brucei TbrPDEB1/B2 double knockout dependent on this PDE; assay type: cell-based; settings: growth read-out of whole trypanosomes, not enzyme assay; HMI-11 medium, 37 °C, 48 h plus 24 h resazurin
T4 construct: gene PDEB1; full length, C-terminal 6Myc tag, expressed from rRNA locus in T. b. brucei 2T1 lacking endogenous TbrPDEB1/B2
T4 sequence (Q8WQX9 entry or part of it): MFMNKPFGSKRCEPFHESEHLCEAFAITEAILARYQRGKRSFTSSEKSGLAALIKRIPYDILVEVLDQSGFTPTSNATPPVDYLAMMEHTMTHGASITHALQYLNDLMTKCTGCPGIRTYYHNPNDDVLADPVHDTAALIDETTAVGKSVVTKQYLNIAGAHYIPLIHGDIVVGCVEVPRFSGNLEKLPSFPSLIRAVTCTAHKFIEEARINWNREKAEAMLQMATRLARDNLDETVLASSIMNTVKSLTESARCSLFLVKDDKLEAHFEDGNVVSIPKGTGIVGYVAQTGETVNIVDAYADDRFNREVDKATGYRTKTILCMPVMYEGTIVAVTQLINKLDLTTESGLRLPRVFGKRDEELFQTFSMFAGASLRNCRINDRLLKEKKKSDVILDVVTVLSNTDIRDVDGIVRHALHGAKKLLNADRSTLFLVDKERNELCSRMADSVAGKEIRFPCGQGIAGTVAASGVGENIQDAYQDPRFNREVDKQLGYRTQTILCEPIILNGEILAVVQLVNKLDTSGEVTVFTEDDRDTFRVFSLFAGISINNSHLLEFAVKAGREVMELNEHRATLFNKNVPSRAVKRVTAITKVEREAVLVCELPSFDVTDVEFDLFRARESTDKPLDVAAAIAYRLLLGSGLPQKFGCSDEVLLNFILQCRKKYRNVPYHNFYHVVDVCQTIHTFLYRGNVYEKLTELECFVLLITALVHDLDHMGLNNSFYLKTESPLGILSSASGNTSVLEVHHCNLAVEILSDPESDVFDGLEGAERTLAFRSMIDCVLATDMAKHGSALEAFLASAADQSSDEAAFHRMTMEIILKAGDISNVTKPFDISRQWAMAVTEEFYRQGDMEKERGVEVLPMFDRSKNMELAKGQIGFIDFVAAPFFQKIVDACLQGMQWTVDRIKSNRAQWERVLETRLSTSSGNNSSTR
From the text: alamar blue growth assay of T. brucei TbrPDEB1/B2 double knockout dependent on this PDE on TbrPDEB1

| SMILES | dKO+TbrPDEB2 EC50 [1] | dKO+SmPDE4A / EC50 [2] | EC50 [3] | dKO+TbrPDEB1 EC50 [4] |
| --- | --- | --- | --- | --- |
| COc1ccc(C2=NN(C3CCCCCC3)C(=O)[C@@H]3CC=CC[C@H]23)cc1OCCCCOc1ccc(-c2nn[nH]n2)cc1 [NPD-001] | 84 ± 18 nM | 24 ± 3 nM | 0.1 ± 0.015 µM |  |
| COc1ccc(C2=NN(C3CCN(C(=O)CN4C(=O)CC(C)(C)CC4=O)CC3)C(=O)[C@@H]3CC=CC[C@H]23)cc1OC [NPD-226] | 82 ± 9 nM | 40 ± 4 nM | 0.16 ± 0.01 µM | 290 ± 110 nM |
| COc1cc2c(cc1OC)-c1cc(=Nc3c(C)cc(C)cc3C)n(C)c(=O)n1CC2 [Trequisin] |  |  | 33.2 ± 0.9 µM |  |
| N=C(N)c1ccc(OCCCCCOc2ccc(C(=N)N)cc2)cc1 [Pentamidine] |  |  | 0.0012 ± 0.0002 µM |  |
